One assay concerns normal hamsters. The assay is described as follows: Measurement of blood HDL cholesterol increasing action in normal hamsters. In kind it is in vivo, male Syrian Hamsters. The settings on record: for Average HDL cholesterol level ± SD: plasma 2 hours after administration on day 7, n = 5; for HDL cholesterol increasing ratio: relative to control group. From the text: N-{1-[3,5-Bis(trifluoromethyl)phenyl]ethyl}-N-({2-[(cyclopentylmethyl)(ethyl)amino]-5-(trifluoromethyl)phenyl}methyl)-5-[2-(methylsulfonyl)ethoxy]pyrimidin-2-amine (Example 3), or 4(S)-[(3,5-bis-trifluoromethylbenzyl)methoxycarbonylamino]-2(R)-ethyl-6-trifluoromethyl-3,4-dihydro-2H-quinoline-1-carboxylic acid ethyl ester (Torcetrapib) disclosed in International Patent Publication WO2000/17164 was suspended in a 5% Tween 80 solution (control vehicle), and then repeatedly administered to normal hamsters (male Syrian Hamsters) by oral administration once a day over 7 days by using a metal catheter. Two hours after the administration on day 7 of the administration, blood was collected, and plasma was obtained. Plasma lipoproteins were analyzed by automatic measurement using a HPLC system based on the postlabeling method according to the method described in J. Lipid. Res., 43, pp. 805-814. Specifically, 15 μL of a plasma sample was diluted 10 times with PBS containing 1 mM EDTA, and then injected in a volume of 80 μL into a gel filtration column (Superose 6 column, column size: 10×300 mm, GE Healthcare Bioscience) connected to a HPLC system (liquid feeding unit: Shimadzu LC-20A System, Shimadzu). Separation was performed by using PBS containing 1 mM EDTA as a running buffer at a flow rate of 0.5 mL/min and at a column temperature of 40° C. The eluate from the column was mixed with a cholesterol measurement reagent (Cholesterol E-Test Wako, Wako Pure Chemical Industries) at a flow rate of 0.25 mL/min, and the reaction was allowed in a reaction coil (0.5 mm×15 m) at 40° C. during the feeding. Cholesterols in the eluate from the reaction coil were detected at a wavelength of 600 nm. An area ratio of the HDL fraction relative to the total area of the obtained cholesterols was calculated, and HDL cholesterol level was calculated by multiplying the total cholesterol level measured beforehand using Cholesterol E Test Wako by the area ratio of the HDL fraction. Five normal hamsters grouped beforehand on the basis of the total plasma cholesterol level were used for each of the control group (control vehicle administration group) and the compound administration groups (groups administered with the compound of Example 3 at 10 mg/kg, 30 mg/kg and 100 mg/kg, and Torcetrapib at 10 mg/kg and 100 mg/kg).
The symbols * and *** used in FIG. 1 and Table 3 indicate presence of significant difference at a risk ratio lower than 5% (p<0.05) and a risk ratio lower than 0.1% (p<0.001), respectively, in a multi-group comparison test (Dunnett's multiple comparison test) performed between the control group and each compound administration group. Further, increasing ratios of HDL cholesterol level in each group relative to the control group were calculated as HDL cholesterol increasing ratios in accordance with the following equation 2, and indicated in terms of %. HDL cholesterol increasing ratio (%)=[(Average HDL cholesterol level of each compound administration group−Average HDL cholesterol level of control group)/Average HDL cholesterol level of control group]×100 (Equation 2)

The target in another assay is T1, CETP (Homo sapiens, UniProt P11597).
T1 construct: The CETP activity in this plasma was measured with Cholesteryl Ester Transfer Protein Activity kit; from tissue; host or cells: human plasma
T1 sequence (P11597 18-493): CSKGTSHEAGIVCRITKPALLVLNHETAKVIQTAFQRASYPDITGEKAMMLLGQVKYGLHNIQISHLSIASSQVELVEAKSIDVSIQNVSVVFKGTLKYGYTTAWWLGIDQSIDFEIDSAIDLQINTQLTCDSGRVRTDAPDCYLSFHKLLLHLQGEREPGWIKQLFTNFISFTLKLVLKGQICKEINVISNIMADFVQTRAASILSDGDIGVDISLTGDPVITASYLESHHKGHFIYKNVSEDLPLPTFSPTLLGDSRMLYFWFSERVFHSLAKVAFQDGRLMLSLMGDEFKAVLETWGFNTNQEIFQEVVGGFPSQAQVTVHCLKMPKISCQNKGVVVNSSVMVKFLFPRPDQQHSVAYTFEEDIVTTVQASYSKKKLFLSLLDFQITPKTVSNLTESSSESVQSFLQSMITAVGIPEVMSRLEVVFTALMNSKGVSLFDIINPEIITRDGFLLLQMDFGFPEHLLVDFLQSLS
Kind of assay: Measurement of CETP inhibitory action in human plasma. In kind it is biochemical. The settings on record: incubated with compound 37° C. 4 hours, Roar Biomedical CETP Activity kit, read-out: IC50 (concentration inhibiting the CETP activity by 50%). Here is the method: A solution obtained by dissolving an exemplary compound in polyethylene glycol/N-methyl-2-pyrrolidone (vol/vol=1/1) was added to human plasma, and the mixture was incubated in an incubator at 37° C. for 4 hours. The CETP activity in this plasma was measured with Cholesteryl Ester Transfer Protein Activity kit (Roar Biomedical, catalog No.: RB-CETP). Specifically, to each well of a 96-well plate, 95 μL of a buffer (10 mM Tris, 150 mM NaCl, 2 mM EDTA, pH 7.4), 2 μL of Donor particle and 2 μL of Acceptor particle were added, 1 μL of the human plasma after the incubation was added to the mixture, and the mixture was incubated in an incubator at 37° C. for 2 hours. After completion of the incubation, fluorescence intensity (FLU) was measured with a fluorescence plate reader (excitation wavelength: 465 nm, emission wavelength: 535 nm). In accordance with the following equation 1, the CETP activity (% of control) was obtained for the compounds of the examples for two or more concentrations. CETP activity (% of control)=(Sample FLU−Blank FLU)×100/(Control FLU−Blank FLU) (Equation 1)
In the equation, the terms have the following meanings: […]
Blank FLU: Fluorescence intensity of sample not added with plasma
Control FLU: Fluorescence intensity of plasma not added with solution of compound
Sample FLU: Fluorescence intensity of plasma added with solution of compound
A value obtained by subtracting the value of the CETP activity from 100 was defined as the CETP inhibitory rate of each exemplary compound, and a concentration inhibiting the CETP activity by 50% (IC50) was calculated for each exemplary compound from the values of the CETP inhibitory rate at two or more concentrations.

Setting [1] is: 10 mg/kg oral once a day over 7 days.
The mark [2] stands for this setting: 30 mg/kg oral once a day over 7 days.
The mark [3] stands for this setting: 100 mg/kg oral once a day over 7 days.

SMILES strings stand for the structures. Marks after values point to notes of the source that are not given here.

Take `CCN(CC1CCCC1)c1ccc(C(F)(F)F)cc1CN(c1ncc(OCCS(C)(=O)=O)cn1)C(C)c1cc(C(F)(F)F)cc(C(F)(F)F)c1` (centres unmarked) [Example 3, N-{1-[3,5-bis(trifluoromethyl)phenyl]ethyl}-N-({2-[(cyclopentylmethyl)(ethyl)amino]-5-(trifluoromethyl)phenyl}methyl)-5-[2-(methylsulfonyl)ethoxy]pyrimidin-2-amine]: the entries for the “Average HDL cholesterol level ± SD” value in the assay on normal hamsters (setting [1]), in the assay with normal hamsters (setting [2]) and with normal hamsters (setting [3]) were 118.5 ± 7.6*** mg/dl, 124.4 ± 8.4*** mg/dl and 126.9 ± 13.2*** mg/dl, respectively. For the same compound, the “HDL cholesterol increasing ratio” value in the assay with normal hamsters (setting [1]) came to 37.1%; in the assay on normal hamsters (setting [2]), 43.9%; with normal hamsters (setting [3]), 46.8%. The IC50 at CETP turned out to be 0.03 µM.

On to `CCOC(=O)N1c2ccc(C(F)(F)F)cc2[C@@H](N(Cc2cc(C(F)(F)F)cc(C(F)(F)F)c2)C(=O)OC)C[C@H]1CC` [Torcetrapib, 4(S)-[(3,5-bis-trifluoromethylbenzyl)methoxycarbonylamino]-2(R)-ethyl-6-trifluoromethyl-3,4-dihydro-2H-quinoline-1-carboxylic acid ethyl ester, reference compound], for which the “Average HDL cholesterol level ± SD” value with normal hamsters (setting [1]) was 90.6 ± 7.7 mg/dL; in the assay on normal hamsters (setting [3]) it was 113.0 ± 23.2* mg/dl. Further, the “HDL cholesterol increasing ratio” value was determined as 4.8% in the assay with normal hamsters (setting [1]) and 30.7% in the assay with normal hamsters (setting [3]).

These data come from patent US7659271B2, “Pyrimidine compound having dibenzylamine structure and medicament comprising the same” (Kowa Company, Ltd., priority 2007, dated 2010).
